Experimental data as given in patent US6921539B2, “Antimicrobial therapeutic compositions and method of use” (priority 2002, dated 2005).

Columns and labels:
acute bronchio pneumonia [1] = experiment: In Vivo Treatment of Pneumonia in Sheep, control group (Example 9); conditions: 15 i.m. injections of 2 ml every 8 hours
Text: (§1) For example, a normalization of body temperature, the animal has begun to eat if not eating before treatment, the specific symptoms (e.g., diarrhea, coughing, etc.) have ceased.
(§2) Treatments of procarvol by injection were through methods and techniques normally used by those in the agricultural field.
(§3) The following examples are from a control group. These were similar animals and received standard conventional antibiotic treatment with accepted veterinary treatment protocols.
A 60 day old male sheep with an initial weight of 40 lbs (18 kg) was afflicted with acute bronchio pneumonia. Symptoms included fever and difficult breathing. The sheep had been positively diagnosed for […]. The sheep had been treated previously with penicillin. The therapy included 15 intramuscular injections of 2 ml Procaine penicillin G every 8 hours. The temperature of the sheep over the course of treatment is shown below.

Escherichia coli [2] = experiment: In Vivo Treatment of Colibacilosis in Pig, control group (Example 8); conditions: 2 i.m. injections of 2 ml every 12 hours
Text: as §1, §2, §3
A three (3) week old female Landras pig with an initial weight of 19 lbs (9 kg) was afflicted with Escherichia coli colibacilosis. Symptoms included diarrhea. The pig had been positively diagnosed for the bacterium Escherichia coli. The pig had been treated previously with ampicillin and colicisit. The therapy included two (2) intramuscular injections of 2 ml of ampicillin every 12 hours. The temperature of the pig over the course of treatment is shown below.

Escherichia Coli [3] = experiment: In Vivo Treatment of Colibacilosis in Calf, control group (Example 12); conditions: 5 i.m. injections of 5 ml and infusion of electrolytes every 12 hours
Text: as §1, §2, §3
A 15 day old male Holstein calf with an initial weight of 90 lbs (41 kg) was afflicted with Escerichia coli colibacilosis. Symptoms fever, diarrhea, dehydration, and loss of appetite. The calf had been positively diagnosed for Escherichia Coli. The calf had not been treated previously. The therapy included five (5) intramuscular injections of 5 ml ampicillin and also the infusion of electrolytes every 12 hours. The temperature of the calf over the course of treatment is shown below.

acute bronchio pneumonia [4] = experiment: In Vivo Treatment of Pneumonia in Pig, control group (Example 13); conditions: 8 i.m. injections of 8 ml every 12 hours
Text: as §1, §2, §3
A three and one half (3½) month old male Landras pig with an initial weight of 80 lbs (36 kg) was afflicted with acute bronchio pneumonia. Symptoms included coughing, fever, and loss of appetite. The pig had been positively diagnosed for pneumonia. The pig had not been treated previously. The therapy included eight (8) intramuscular injections of 8 ml of ampicillin every 12 hours. The temperature of the pig over the course of treatment is shown below.

Steptococcus uberis = experiment: In Vivo Treatment of Mastitis in Cow, control group (Example 14); conditions: 8 i.m. injections of 8 ml every 12 hours
Text: as §1, §2, §3
A four (4) year old […] Holstein cow with an initial weight of 1000 lbs (454 kg) was afflicted with mastitis. Symptoms included edema on the udder, and poor quality milk. The cow had been positively diagnosed for Steptococcus uberis. The cow had been previously treated with penicillin and streptomycin. The therapy included eight (8) intramuscular injections of 8 ml of ampicillin every 12 hours. The temperature of the cow over the course of treatment is shown below.

[5] = inactive metabolites after degradation by enzymes; cited from earlier work
[6] = cited from earlier work

For `CC1(C)S[C@@H]2[C@H](NC(=O)Cc3ccccc3)C(=O)N2[C@H]1C(=O)O.CCN(CC)CCOC(=O)c1ccc(N)cc1` [Procaine penicillin G], the outcome of treatment (acute bronchio pneumonia [1]) was “successful recovery”.
For `CC1(C)S[C@@H]2[C@H](NC(=O)[C@H](N)c3ccccc3)C(=O)N2[C@H]1C(=O)O` [ampicillin], the outcome of treatment (Escherichia coli [2]) was “died as a result of the infection”, the outcome of treatment (Escherichia Coli [3]) was “died as a result of the infection” and the outcome of treatment (acute bronchio pneumonia [4]) was “successful recovery”. The outcome of treatment (Steptococcus uberis) was “successful recovery”.
For `Cc1ccc(C(C)C)cc1O` [carvacrol, 5-isopropyl-2-methylphenol], the “metabolites excreted in the urine” value [5] is given as “approx. 90%”, the “metabolites expired from the lungs in the form of carbon dioxide (CO2)” value [5] is given as 10% and the solubility in lipids [6] is given as “soluble in lipids”.
In the case of `Cc1ccc(C(C)C)c(O)c1` [thymol, 5-methyl-2[1-methylethyl]phenol], the “metabolites excreted in the urine” value [5] is listed as “approx. 90%” and the “metabolites expired from the lungs in the form of carbon dioxide (CO2)” value [5] is listed as 10%.
